# Tests used:
# ESRRB [1] = assay: ESRRB gene expression by qPCR, effect of Forskolin and A83-01 on making naïve (Example 4); format: cell-based, human; settings: 201B7 cells; 10 μM Forskolin and 0.5 μM A83-01 added to 2iL+Go6983 medium
# ESRRB [2] = assay: ESRRB gene expression by qPCR, effect of Go6983 addition timing (Example 3); format: cell-based, human; settings: 201B7 cells passage 1; KSR 2iLFA medium with Go6983 (5 μM) versus without; doxycycline added; low oxygen
# Method: The iPS cells gene-introduced and cloned in “1.2 Generation of gene-introduced cell line” were dissociated into single cells by using a dissociation solution and TrypLE™ Select, and seeded in a 6-well plate at 1×10^5 cells/well in which MEF cells had been seeded as feeder. At this time, as a medium, 2iLFA+Go6983 medium shown in Table 1 (hereinafter, also abbreviated as “the medium of the present invention”) was used, and cultured in low oxygen in a state in which doxycycline (1 μg/mL) was further added so as to induce expression of the introduced gene (Passage 1; P1). Note here that on the first day of the start of making naïve, Y27632 (ROCK inhibitor) was added so as to be 10 μM, […]. On day 5 to 7 after the start of making naïve, subculturing was performed. The medium was removed, and then 350 μL of 0.25% Trypsin-EDTA was added in each well to cause reaction for one minute at 37° C. The reaction was stopped by Trypsin Inhibitor, and then 5 mL of medium was added thereto. Pipetting was carried out several times using PIPETTE AID to detach colonies of iPS cells from a sheet of feeder cells. The colonies were collected in a 15-mL tube. After centrifugation, a supernatant was removed, and 200 μL of medium was added, followed by pipetting using P200 […] about 40 times to be dissociated into single cells. […]
structure (smiles),measurement,setting,value
"Cc1cccc(-c2nn(C(=S)Nc3ccccc3)cc2-c2ccnc3ccccc23)n1 [A83-01, 3-(6-methyl-2-pyridinyl)-N-phenyl-4-(4-quinolinyl)-1H-pyrazole-1-carbothioamide]",maintenance of the naïve state of iPS cells after stopping induction of expression of the introduced gene,ESRRB [1],needed in order to maintain the naïve state of the iPS cells
"COc1ccc2c(c1)c(C1=C(c3c[nH]c4ccccc34)C(=O)NC1=O)cn2CCCN(C)C [Go6983, 3-[1-[3-(dimethylamino)propyl]-5-methoxy-1H-indole-3-yl]-4-(1H-indole-3-yl)-1H-pyrrole-2,5-dione]",expression of ESRRB,ESRRB [2],higher expression of ESRRB

# — patent US20200325453A1, “METHOD FOR PRODUCING NAÏVE PLURIPOTENT STEM CELLS” (priority 2015, published 2020)
